Results as given in PMC7281150, “Inspired by Sea Urchins: Warburg Effect Mediated Selectivity of Novel Synthetic Non-Glycoside 1,4-Naphthoquinone-6S-Glucose Conjugates in Prostate Cancer” (Marine Drugs, 2020).

SMILES | melting point [°C]
CC(=O)O[C@@H]1O[C@H](CSC2=CC(=O)c3c(O)c(C)c(C)c(O)c3C2=O)[C@@H](OC(C)=O)[C@H](OC(C)=O)[C@H]1OC(C)=O [SAB-1, 2-(1,2,3,4-Tetra-O-acetyl-6-deoxy-β-D-glucopyranos-6-ylthio)-5,8-dihydroxy-6,7-dimethyl-1,4-naphthoquinone] | 203 to 205
CC(=O)O[C@@H]1O[C@H](CSc2c(C)c(O)c3c(c2O)C(=O)C(O)=C(O)C3=O)[C@@H](OC(C)=O)[C@H](OC(C)=O)[C@H]1OC(C)=O [SAB-3, 6-(1,2,3,4-Tetra-O-acetyl-6-deoxy-β-D-glucopyranos-6-ylthio)-2,3,5,8-tetrahydroxy-7-methyl-1,4-naphthoquinone] | 207 to 211
COc1c(O)c2c(c(O)c1SC[C@H]1O[C@@H](OC(C)=O)[C@H](OC(C)=O)[C@@H](OC(C)=O)[C@@H]1OC(C)=O)C(=O)C(O)=CC2=O [SAB-5, 7-(1,2,3,4-Tetra-O-acetyl-6-deoxy-β-D-glucopyranos-6-ylthio)-2,5,8-trihydroxy-6-methoxy-1,4-naphthoquinone] | 109 to 112
CC(=O)O[C@@H]1O[C@H](CSC2=C(C)C(=O)c3c(O)cccc3C2=O)[C@@H](OC(C)=O)[C@H](OC(C)=O)[C@H]1OC(C)=O [SAB-7, 2-(1,2,3,4-Tetra-O-acetyl-6-deoxy-β-D-glucopyranos-6-ylthio)-5-hydroxy-3-methyl-1,4-naphthoquinone] | 160 to 161
CC(=O)O[C@@H]1O[C@H](CSC2=C(SC[C@H]3O[C@@H](OC(C)=O)[C@H](OC(C)=O)[C@@H](OC(C)=O)[C@@H]3OC(C)=O)C(=O)c3c(O)c(C)c(C)c(O)c3C2=O)[C@@H](OC(C)=O)[C@H](OC(C)=O)[C@H]1OC(C)=O [SAB-9, 2,3-Di(1,2,3,4-tetra-O-acetyl-6-deoxy-β-D-glucopyranos-6-ylthio)-5,8-dihydroxy-6,7-dimethyl-1,4-naphthoquinone] | 202 to 205
CC(=O)Oc1cccc2c1C(=O)C=C(SC[C@H]1O[C@@H](OC(C)=O)[C@H](OC(C)=O)[C@@H](OC(C)=O)[C@@H]1OC(C)=O)C2=O [SAB-25, 2-(1,2,3,4-Tetra-O-acetyl-6-deoxy-β-D-glucopyranos-6-ylthio)-5-acetoxy-1,4-naphthoquinone] | 172 to 175

Next, values leading:

melting point [°C] | SMILES
167 to 171 | CCC1=C(O)C(=O)c2c(O)c(SC[C@H]3O[C@@H](OC(C)=O)[C@H](OC(C)=O)[C@@H](OC(C)=O)[C@@H]3OC(C)=O)c(OC)c(O)c2C1=O [SAB-11, 7-(1,2,3,4-Tetra-O-acetyl-6-deoxy-β-D-glucopyranos-6-ylthio)-3-ethyl-2,5,8-trihydroxy-6-methoxy-1,4-naphthoquinone]
148 to 151 | CC(=O)O[C@@H]1O[C@H](CSc2c(C)c(O)c3c(c2O)C(=O)C(C)=C(C)C3=O)[C@@H](OC(C)=O)[C@H](OC(C)=O)[C@H]1OC(C)=O [SAB-15, 6-(1,2,3,4-Tetra-O-acetyl-6-deoxy-β-D-glucopyranos-6-ylthio)-5,8-dihydroxy-2,3,7-trimethyl-1,4-naphthoquinone]
179 to 182 | CCc1c(O)c2c(c(O)c1SC[C@H]1O[C@@H](OC(C)=O)[C@H](OC(C)=O)[C@@H](OC(C)=O)[C@@H]1OC(C)=O)C(=O)C(C)=C(C)C2=O [SAB-17, 6-(1,2,3,4-Tetra-O-acetyl-6-deoxy-β-D-glucopyranos-6-ylthio)-7-ethyl-5,8-dihydroxy-2,3-dimethyl-1,4-naphthoquinone]
156 to 159 | CC(=O)O[C@@H]1O[C@H](CSC2=C(Cl)C(=O)c3c(O)c(Cl)c(Cl)c(O)c3C2=O)[C@@H](OC(C)=O)[C@H](OC(C)=O)[C@H]1OC(C)=O [SAB-19, 2-(1,2,3,4-Tetra-O-acetyl-6-deoxy-β-D-glucopyranos-6-ylthio)-3,6,7-trichloro-5,8-dihydroxy-1,4-naphthoquinone]
207 to 210 | CC(=O)O[C@@H]1O[C@H](CSC2=CC(=O)c3c(O)ccc(O)c3C2=O)[C@@H](OC(C)=O)[C@H](OC(C)=O)[C@H]1OC(C)=O [SAB-21, 2-(1,2,3,4-Tetra-O-acetyl-6-deoxy-β-D-glucopyranos-6-ylthio)-5,8-dihydroxy-1,4-naphthoquinone]
